Biological target: T1, MAPKAPK5 (PRAK) (Homo sapiens, UniProt Q8IW41)
T1 construct: purchased Thermo Fisher Scientific (Life Technologies) SelectScreen
Test: SelectScreen Z'LYTE
Format: biochemical
Method in brief: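 Percent values come from Thermo SelectScreen profiling of NU5455, combining activity and binding assays. CSF1R was run in Z'LYTE format at Km app ATP, and CAMK1 in Adapta format with ATP listed at 10.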

T1 sequence (Q8IW41 whole entry): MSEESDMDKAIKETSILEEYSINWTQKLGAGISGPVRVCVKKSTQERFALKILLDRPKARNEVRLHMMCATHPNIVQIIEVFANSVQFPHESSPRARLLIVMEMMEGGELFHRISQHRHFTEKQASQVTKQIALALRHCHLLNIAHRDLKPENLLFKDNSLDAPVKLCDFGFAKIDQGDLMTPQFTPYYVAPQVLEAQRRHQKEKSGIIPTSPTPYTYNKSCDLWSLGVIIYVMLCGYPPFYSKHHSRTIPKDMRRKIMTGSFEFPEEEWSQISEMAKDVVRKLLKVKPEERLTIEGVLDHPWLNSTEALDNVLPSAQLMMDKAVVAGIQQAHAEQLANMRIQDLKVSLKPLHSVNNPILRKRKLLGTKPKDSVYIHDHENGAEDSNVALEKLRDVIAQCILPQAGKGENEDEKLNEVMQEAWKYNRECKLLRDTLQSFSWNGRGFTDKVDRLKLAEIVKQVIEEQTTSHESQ

With CN(C(=O)CN1CCOCC1)c1ccc2sc3c(-c4cccc5c(=O)cc(N6CC7CCC(C6)O7)oc45)cccc3c2c1 [NU5455] as the molecule, how does the inhibition at 1 µM read?
Its inhibition at 1 µM is 0.6%.

From article PMC6934184, “Selective DNA-PKcs inhibition extends the therapeutic index of localized radiotherapy and chemotherapy” (The Journal of Clinical Investigation, 2019)
